Reference: patent US20230365590A1, “BIPHENYL COMPOUND AS IMMUNOMODULATOR, PREPARATION METHOD THEREFOR AND APPLICATION THEREOF” (SHENZHEN CHIPSCREEN BIOSCIENCES CO., LTD., priority 2020, published 2023)

Test system: PD-1/PD-L1 mediated inhibitory signal to T cell activation (CHO-PD-L1-CD3L cells and Jurkat-PD-1-NFAT cells)
Assay: Blocking of PD-1/PD-L1 mediated inhibitory signal to T cell activation at cell level (NFAT luciferase reporter, co-culture)
Type: cell-based
Conditions: Homo sapiens, CHO-PD-L1-CD3L / Jurkat-PD-1-NFAT co-culture, 6 h
Procedure: In order to test the effect of interaction between PD-1 and PD-L1 on T cell activation signal in immune response, CHO-PD-L1-CD3L cells stably expressing human PD-L1 molecule and anti-CD3 single-chain antibody (ScFv) and Jurkat-PD-1-NFAT cells stably expressing human PD-1 molecule and NFAT reporter gene were constructed. When two kinds of cells are incubated together, anti-CD3 ScFv on the CHO cell surface and membrane CD3 molecule of Jurkat cell combine to transmit an activation signal into Jurkat cell. However, due to the binding of PD-L1 on the CHO cell surface and PD-1 molecule on the Jurkat cell surface at the same time, a signal for inhibiting activation is transmitted inward, so that luciferase reporter gene cannot be expressed. When an immunocheckpoint antibody or small-molecule inhibitor is added, the binding of PD-1 and PD-L1 is blocked, the NFAT pathway activated by CD3 ScFv antibody and CD3 cross-linking mediated T cell activation signal is no longer affected by the inhibitory signal, and the downstream luciferase reporter gene starts to be expressed. Chemiluminescence signals proportional to reporter gene activation can be detected by adding a catalytic substrate.
CHO-PD-L1-CD3L cells expressing human PD-L1 molecule and anti-CD3 single-chain antibody (ScFv) and Jurkat-PD-1-NFAT cells stably expressing human PD-1 molecule and NFAT reporter gene were all independently constructed and presented by Dr. Chen Bo (KeyMed Biosciences (Chengdu) Co., Ltd. Puromycin (Cat # 540411) and Hygromycin B (Cat # V900372) for stable culture of transfected cells were purchased from Sigma, PMA (Cat # P1585) was purchased from Sigma, and the anti human PD-L1 antibody (Cat # GMP-A066) was purchased from Novoprotein Company. The Luciferase substrate solution (Cat # E6485) and the luciferase-specific cell lysate 5×(Cat # E1531) were purchased from Promega company. The fluorescence detector Tecan (Spark 10M) was purchased from Tecan Company in Switzerland.
Main Process of Experiment • (1) On the day before the experiment, 100 μL of CHO-PD-L1-CD3L cells (about 4×10^4 cells/well) were inoculated at 37° C. overnight in a 96-well cell culture plate, and the culture medium was DMEM/F12 containing 10% FBS, 8 μg/mL Puromycin and 200 μg/mL Hygromycin B. • (2) The test compound was diluted with 0.1% PBST to obtain solutions with different concentration gradients, and then added into 96-well plates and incubated for 30 min in advance. The RPMI 1640 complete medium containing 10% FBS, 8 μg/mL Puromycin and 200 μg/mL Hygromycin B was used to adjust the Jurkat-PD-1-NFAT cell count to 2×10^5 cells/mL, and 100 ng/mL PMA (10 mg/mL storage solution prepared with DMSO) was added to amplify the T cell activation signal. 100 μL of the Jurkat-PD-1-NFAT cells were added into each well of the 96-well plates for co-culture. • (3) During the test reaction, control groups were set, including the solvent control without adding the test compound and the positive control with the addition of the […] in the experimental system. All tests were conducted by use of multiple holes. • (4) Incubation was continued at 37° C. for 6 h, 40 μL of 5×cell lysate was added directly, the solution was mixed well and placed at room temperature for 10 min to completely lyse cells. 50 μL of lysed cell solution was transferred to a fluorescence detection plate, 30 μL of luciferase substrate solution was then added, and the chemiluminescence detection program was immediately selected on the fluorescence detector for determination. • (5) Calculation formula of the inhibition rate of the test compound against T cell activation signal at the cell level: The inhibition rate against T cell activation signal (%)=(original chemiluminescence value of the test hole−solvent control)/(the highest original chemiluminescence value determined in the compound test hole−solvent control)×100%. […]

Compound | EC50
COCC12CCC(CCN3CCc4c(nc(C(=O)Nc5cccc(-c6cccc(NC(=O)c7nc8c(n7C)CCN(CC79CCC(C(=O)O)(CC7)C9)C8)c6Cl)c5C)n4C)C3)(CC1)C2 [Compound I-12, 4-((2-((2-chloro-3′-(5-(2-(4-(methoxymethyl)bicyclo[2.2.1]heptan-1-yl)ethyl)-1-methyl-4,5,6,7-tetrahydro-1H-imidazo[4,5-c]pyridine-2-carboxamido)-2′-methyl-[1,1′-biphenyl]-3-yl)carbamoyl)-1-methyl-1,4,6,7-tetrahydro-5H-imidazo[4,5-c]pyridin-5-yl)methyl)bicyclo[2.2.1]heptane-1-carboxylic acid] | 38.3 nM
Cn1c(C(=O)Nc2cccc(-c3cccc(NC(=O)c4nc5c(n4C)CCN(CC46CCC(C(=O)O)(CC4)C6)C5)c3Cl)c2Cl)nc2c1CCN(CCO)C2 [Example 180] | 108 nM
